Measured values from patent US9242015B2, “Development and screening of contrast agents for in vivo imaging of Parkinson's disease” (The General Hospital Corporation, priority 2010, dated 2016).
Values belong to the molecule of their own block, whether it stands above or below them.

Columns and labels:
[1] = target: T1, Lewy bodies (Homo sapiens, UniProt P37840); test: Staining of Lewy bodies in post-mortem DLB/PD midbrain tissue; for staining on a LB (FIG. 2): key: positive staining with high contrast (++); positive staining with low contrast (+); negative staining (−); assay type: binding; conditions: for Lewy Bodies Contrast: DLB/PD post-mortem midbrain tissue, dyes in PBS at 500 nM, 5 μM for 30 minutes; for staining on a LB (FIG. 2): DLB post-mortem midbrain tissue
T1 construct: Post-mortem midbrain tissue from DLB and PD patients was obtained from the HBTRC Brain Bank at McLean Hospital; tissue HBTRC Brain Bank at McLean Hospital; host or cells: formalin-fixed post-mortem human midbrain (DLB and PD patients)
Description: (§3) Post-mortem midbrain tissue from DLB and PD patients was obtained from the HBTRC Brain Bank at McLean Hospital. Tissue was fixed with formalin and immuno-stained with H3C primary antibody for synuclein and Alexa488 or Cy5 (not shown) conjugated secondary antibody. Immuno-stained tissue was incubated with fluorescent dyes in PBS at concentrations of 500 nM, 2 μM, and 5 μM for 30 minutes. Slides of tissue were imaged with Olympus Microscope at 60× with appropriate filter set.

[2] = target: T2, Lewy neurites (Homo sapiens, UniProt P37840); test: Staining of Lewy neurites in post-mortem DLB/PD midbrain tissue; for all read-outs here: key: positive staining with high contrast (++); positive staining with low contrast (+); negative staining (−); assay type: binding; conditions: for Lewy Neurites Contrast: DLB/PD post-mortem midbrain tissue, dyes in PBS at 500 nM, 5 μM for 30 minutes; for staining on a LN (FIG. 2): DLB post-mortem midbrain tissue
T2 construct: Post-mortem midbrain tissue from DLB and PD patients was obtained from the HBTRC Brain Bank at McLean Hospital; tissue HBTRC Brain Bank at McLean Hospital; host or cells: formalin-fixed post-mortem human midbrain (DLB and PD patients)
Description: as §3

[3] = system: AD Plaque; test: Staining of plaques in AD temporal lobe sections; assay type: binding, human; conditions: 5 μM dye in PBS; note: key: positive (+) staining for both plaques and tangles; did not bind (−) AD pathology
Description: (§1) Paraffin-embedded formalin-fixed tissue from the temporal lobe of AD patients was obtained through the MA ADRC Brain Bank. Sections were stained with 0.05% Thio S to visualize plaques and NFT. Tissue was then stained with 5 μM dye in PBS. Slides were imaged on an Olympus Microscope at 20×, with a GFP emission filter for Thio S, and appropriate emission ranges for the dyes.

[4] = system: AD NFT; test: Staining of neurofibrillary tangles (NFT) in AD temporal lobe sections; assay type: binding, human; conditions: 5 μM dye in PBS; note: key: positive (+) staining for both plaques and tangles; did not bind (−) AD pathology
Description: as §1

[5] = Blood-brain barrier crossing by in vivo fluorescence imaging after IV injection; conditions: for BBB Crossing: mouse, in vivo
Source text: (§2) Wide field fluorescence images were taken with a CCD camera on an Olympus microscope.
Images were taken with a BIO-RAD MRC1024 multi-photon microscope.
as §2

[6] = Log P
[7] = PD/APP transgenic mouse (18 mo), tail vein, 10 mg/kg, multi-photon microscope; cited from earlier work

Molecule: CCN(CC)c1ccc2nc3c(cc(N)c4ccccc43)[o+]c2c1.[O-][Cl+3]([O-])([O-])[O-] [Nile Blue 690 ClO4, 5-amino-9-(diethylamino)-benzo[a]phenoxazin-7-ium perchlorate]
Lewy Bodies Contrast ([1]; 2 μM): + +
Lewy Neurites Contrast ([2]; 2 μM): −
AD Plaque Contrast [3]: −
AD NFT Contrast [4]: −

Molecule: 4-[4-[4-(dimethylamino)phenyl]-1,3-butadienyl]-1-ethyl quinolinium [LDS 798]
Lewy Bodies Contrast ([1]; 2 μM): + +
Lewy Neurites Contrast ([2]; 2 μM): −
AD Plaque Contrast [3]: −
AD NFT Contrast [4]: −
BBB Crossing [5]: +
BBB crossing (wide field fluorescence time course) ([5]; wildtype mouse, IV, 10 mg/kg in 6% DMSO and 1×PBS): crosses BBB and rapidly enters brain
Log P [6]: 1.8

Molecule: [11CH3]Nc1ccc(-c2nc3ccc(O)cc3s2)cc1 [PiB]
time to cross the BBB after IV injection [7]: ≤ 1 min

Lewy Bodies Contrast ([1]; 2 μM): +
Lewy Neurites Contrast ([2]; 2 μM): −
logP [6]: 3.51
Molecule: CCN(CC)c1ccc2nc3c4ccccc4c(=O)cc-3oc2c1 [Nile Red, 9-diethylamino-5-benzo[α]phenoxazinone]
AD Plaque Contrast [3]: −
AD NFT Contrast [4]: −

Molecule: CC[n+]1ccc(C=CC=Cc2ccc(N(C)C)cc2)cc1.[O-][Cl+3]([O-])([O-])[O-] [LDS 722, 4-[4-[4-(dimethylamino)phenyl]-1,3-butadienyl]-1-ethyl-pyridinium perchlorate]
staining on a LB (FIG. 2) ([1]; 2 μM): ++
Lewy Bodies Contrast ([1]; 2 μM): + +
staining on a LN (FIG. 2) ([2]; 2 μM): ++
Lewy Neurites Contrast ([2]; 2 μM): +
AD Plaque Contrast [3]: + +
AD NFT Contrast [4]: + +
logP [6]: 1.04

Molecule: O=S(=O)([O-])c1ccccc1C=Cc1ccc(-c2ccc(C=Cc3ccccc3S(=O)(=O)[O-])cc2)cc1.[Na+].[Na+] [Stilbene 420, 2,2″-([1,1′-biphenyl]-4.4′-diyldi-2,1-ethenediyl)bis-benzenesulfonic acid disodium salt]
Lewy Bodies Contrast ([1]; 2 μM): + +
Lewy Neurites Contrast ([2]; 2 μM): +
AD NFT Contrast [4]: +

Lewy Bodies Contrast ([1]; 2 μM): +
Lewy Neurites Contrast ([2]; 2 μM): −
BBB Crossing [5]: −
Molecule: CCN1C(=CC=CC=Cc2sc3ccccc3[n+]2CC)Sc2ccccc21.[I-] [3-3′-DTDCI, 3,3′-diethylthiadicarbocyanine iodide]
AD Plaque Contrast [3]: +
AD NFT Contrast [4]: −

Molecule: CN1C(=CC=CC=CC=CC2=[N+](C)c3ccccc3C2(C)C)C(C)(C)c2ccccc21.[O-][Cl+3]([O-])([O-])[O-] [HITC ClO4, 2-[7-(1,3-dihydro-1,3,3-trimethyl-2H-indol-2-ylidene)-1,3,5-heptatrienyl]-1,3,3-trimethyl-3H-indolium perchlorate]
Lewy Bodies Contrast ([1]; 2 μM): +
Lewy Neurites Contrast ([2]; 2 μM): −
AD Plaque Contrast [3]: −
AD NFT Contrast [4]: −

Molecule: O=C1NC(=S)NC(=O)C1=C/C=C/C=C/c1c(O)[nH]c(=S)[nH]c1=O [THK-265]
Lewy Bodies Contrast ([1]; 2 μM): +
Lewy Neurites Contrast ([2]; 2 μM): −
AD Plaque Contrast [3]: +
AD NFT Contrast [4]: −
BBB Crossing [5]: −

staining on a LB (FIG. 2) ([1]; 5 μM): −
staining on a LN (FIG. 2) ([2]; 5 μM): −
Molecule: CCN=c1cc2oc3c4c5c(cc3nc-2c2ccccc12)CCCN5CCC4 [Oxazine 750, reference compound]

Molecule: CN(C)c1ccc(C=CC=CC2=[N+](C)c3ccccc3C2(C)C)cc1.[O-][Cl+3]([O-])([O-])[O-] [LDS 730, 2-[4-[4-(dimethylamino)phenyl]-1,3-butadienyl]-1,3,3-trimethyl-3H-indolium perchlorate]
Lewy Bodies Contrast ([1]; 2 μM): +
Lewy Neurites Contrast ([2]; 2 μM): −
AD NFT Contrast [4]: +
